Columns and labels:
Assay type in all cases: cell-based, human
[1] = test system: PC-3 cells; experiment: In vitro cytotoxicity, SRB assay, PC-3
Method: (§1) The semi-synthetic analogues of formula 1 have been subjected to in vitro cytotoxicity screening in a panel of human cancer cell lines using following methodology. The human cancer cell lines were obtained either from National Center for Cell Science, Pune or National Cancer Institute, Fredrick, Md., USA. Cells were grown in tissue culture flasks in complete growth medium (RPMI-1640 medium with 2 mM glutamine, 100 µg/ml streptomycin, pH 7.4, sterilized by filtration and supplemented with 10% sterilized fetal calf serum and 100 units/ml penicillin before use) at 37° C. in an atmosphere of 5% CO2 and 90% relative humidity in a carbon dioxide incubator. The cells at sub-confluent stage were harvested from flask by treatment with trypsin (0.05% trypsin in PBS containing 0.02% EDTA) and suspended in complete growth medium. Cells with cell viability of more than 97% by trypan blue exclusion technique were used for determination of cytotoxicity.
(§2) Test material were dissolved in DMSO (dimethyl sulphoxide) to obtain a stock solution of 2×10^−2M. The stock solution was serially diluted with complete growth medium containing 50 μg/ml of gentamycin to obtain working test solutions of required concentrations.
(§3) The suspension of human cancer cell lines of required cell density in complete growth medium was prepared and cell suspension (100 μl/well) of each cell line was added to wells of 96-well tissue culture plate. Suitable blanks and controls were also included. The plates were incubated for 24 hrs in a carbon dioxide incubator.
(§4) The working test solutions of different concentrations (100 μl/well) were added after 24 hr incubation. The plates were further incubated for 48-hrs after addition of the test materials. After incubation, the cell growth was stopped by gently layering of 50 μl of TCA (50% trichloroacetic acid) on top of the medium in all the wells. The plates were incubated at 4° C. for one hour to fix the cells attached to bottom of the wells. Liquids of all the wells were gently pipetted out and discarded. The plates were washed five times with distilled water to remove TCA, growth medium, low molecular weight metabolites, serum proteins etc. The plates were air dried.
(§5) Cell growth was measured by staining with sulforhodamine B dye (SRB). The SRB solution (100 μl, 0.4% in 1% acetic acid) was added to each well and the plates were incubated at room temperature for 30 minutes. The unbound SRB was quickly removed by washing the wells five times with 1% acetic acid solution and plates were air dried. Tris buffer (100 μl, 0.01 M, pH 10.4) was added to all the wells and plates were gently stirred for 5 minutes on a mechanical stirrer. The optical density was recorded on ELISA reader at 540 nm.
(§6) Cell growth in the presence of test material was calculated in terms of the percentage of growth inhibition. The in vitro cytotoxicity of four natural boswellic acid i.e. boswellic acid, acetyl boswellic acid, 11-keto-boswellic acids, acetyl-11-ketio-boswellic acid on various cancer cell lines has been examined and typical results are given in the succeeding table. Based on their cytotoxicity profile the analogues of formula 1 were studied for inhibition of cell proliferation by using MTT assay method. […] The induction of apoptosis in HL-60 cells was also validated by generation of DNA fragmentation.
(§7) Assay of cytotoxicity potential of test materials is a primary standard procedure for seeking lead molecules for development of anti-cancer leads. Human cancer cells after trypsinization into single cell suspension were grown in 96-well culture plate for 24 hr. Cells were treated with indicated doses of test analogues and incubated in CO2 incubator for 48 hr. Thereafter, cells were stained with sulforhodamine B dye, and the bound dye was eluted to measure the optical density indicating cell growth in Elisa Reader at 540 nm [Monks et al., 1991]. […]

[2] = test system: Colo-205 colon cancer cells; experiment: In vitro cytotoxicity, SRB assay, Colo-205
Method: as §1, §2, §3, §4, §5, §6, §7

[3] = test system: HT-29 colon cancer cells; experiment: In vitro cytotoxicity, SRB assay, HT-29
Method: as §1, §2, §3, §4, §5, §6, §7

[4] = test system: SW-620 colon cancer cells; experiment: In vitro cytotoxicity, SRB assay, SW-620
Method: as §1, §2, §3, §4, §5, §6, §7

[5] = test system: Hep-2 cells; experiment: In vitro cytotoxicity, SRB assay, Hep-2
Method: as §1, §2, §3, §4, §5, §6, §7

[6] = Conc. 5 × 10^5 (r27-r29: 5 × 10^−5), 48 hr, Table 1
[7] = Conc. 5 × 10^−5, 48 hr, natural boswellic acids

| Compound | Growth inhibition % PC-3 [1, 6] [%] | Growth inhibition % Colo-205 Colon [2, 6] [%] | Growth inhibition % HT-29 Colon [3, 6] [%] | Growth inhibition % SW-620 Colon [4, 6] [%] | Growth inhibition % Hep-2 [5, 6] [%] | also measured |
| --- | --- | --- | --- | --- | --- | --- |
| CC1CCC2(C)CCC3(C)C(=CC(=O)C4C5(C)CCC(OC=O)C(C)(C(=O)O)C5CCC43C)C2C1C (stereo not shown) [1, R3O = COH, R1 = H, R4 + R5 = O] | 99 | 76 | 62 | 70 | 56 |  |
| C[C@H]1[C@H](C)CC[C@]2(C)CC[C@]3(C)C(=CC(=O)[C@@H]4[C@@]5(C)CC[C@@H](O)[C@](C)(C(=O)O)[C@@H]5CC[C@]43C)[C@H]12 [11-keto-boswellic acid, reference compound] |  |  |  |  |  | Growth inhibition % PC-3 [1, 7]: 100%; Growth inhibition % Colo-205 Colon [2, 7]: 50%; Growth inhibition % HT-29 Colon [3, 7]: 38%; Growth inhibition % SW-620 Colon [4, 7]: 28%; Growth inhibition % Hep-2 [5, 7]: 34% |
| Acetyl Boswellic acid [reference compound] |  |  |  |  |  | Growth inhibition % PC-3 [1, 7]: 45%; Growth inhibition % Colo-205 Colon [2, 7]: 95%; Growth inhibition % HT-29 Colon [3, 7]: 96%; Growth inhibition % SW-620 Colon [4, 7]: 97%; Growth inhibition % Hep-2 [5, 7]: 88% |
| CO[C@@]12[C@H](COC(N)=O)C3=C(C(=O)C(C)=C(N)C3=O)N1C[C@@H]1N[C@@H]12 [Mitomycin C, reference compound] |  |  |  |  |  | Growth inhibition % PC-3 ([1]; Conc. 1 × 10^6, Table 2): 24%; Growth inhibition % PC-3 ([1]; Conc. 1 × 10^7, Table 2): 18%; Growth inhibition % Colo-205 Colon ([2]; Conc. 1 × 10^6, Table 2): 28%; Growth inhibition % Colo-205 Colon ([2]; Conc. 1 × 10^7, Table 2): 41%; Growth inhibition % HT-29 Colon ([3]; Conc. 1 × 10^6, Table 2): 33%; Growth inhibition % HT-29 Colon ([3]; Conc. 1 × 10^7, Table 2): 19%; Growth inhibition % SW-620 Colon ([4]; Conc. 1 × 10^6, Table 2): 57%; Growth inhibition % SW-620 Colon ([4]; Conc. 1 × 10^7, Table 2): 27%; Growth inhibition % Hep-2 ([5]; Conc. 1 × 10^6, Table 2): 46%; Growth inhibition % Hep-2 ([5]; Conc. 1 × 10^7, Table 2): 12% |
| CCCCCC(=O)OC1CCC2(C)C(CCC3(C)C2C(=O)C=C2C4C(C)C(C)CCC4(C)CCC23C)C1(C)C(=O)O (stereo not shown) | 73 | 95 | 96 | 100 | 100 |  |
| CC(=O)OC1CCC2(C)C(CCC3(C)C2CC=C2C4C(C)C(C)CCC4(C)CCC23C)C1(C)C(=O)O (stereo not shown) [1, R3O = —COCH3, R1 = H, R4 = R5 = H] | 54 | 34 | 34 | 38 | 41 |  |
| CCC(=O)OC1CCC2(C)C(CCC3(C)C2CC=C2C4C(C)C(C)CCC4(C)CCC23C)C1(C)C(=O)O (stereo not shown) [1, R3O = —COCH2CH3, R1 = H, R4 = R5 = H] | 98 | 86 | 94 | 94 | 86 |  |
| CC1CCC2(C)CCC3(C)C(=CCC4C5(C)CCC(OC=O)C(C)(C(=O)O)C5CCC43C)C2C1C (stereo not shown) [1, R3O = COH, R1 = H, R4 = R5 = H] | 99 | 93 | 79 | 92 | 75 |  |
| CCC(=O)OC1CCC2(C)C(CCC3(C)C2C(=O)C=C2C4C(C)C(C)CCC4(C)CCC23C)C1(C)C(=O)O (stereo not shown) [1, R = COCH2CH3, R1 = H, R4 + R5 = O] | 99 | 80 | 67 | 75 | 65 |  |
| CCCC(=O)OC1CCC2(C)C(CCC3(C)C2CC=C2C4C(C)C(C)CCC4(C)CCC23C)C1(C)C(=O)O (stereo not shown) [1, R3O = COCH2CH2CH3, R1 = H, R4 = R5 = H] | 75 | 91 | 98 | 101 | 99 |  |

From US20090298938A1, “USE OF SEMI SYNTHETIC ANALOGUES OF BOSWELLIC ACIDS FOR ANTICANCER ACTIVITY” (COUNCIL OF SCIENTIFIC & INDUSTRIAL RESEARCH, priority 2008, published 2009)
